Experimental data published in ChEMBL document CHEMBL1201862, “PubChem BioAssay data set” (2004).
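Where inhibition never reached the appropriate level, the endpoint shown equals the highest concentration tested. Otherwise, values were interpolated linearly from a five-concentration, 48-hour dose response in 96-well plates. GI50: concentration for 50% inhibition of growth.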 The source made the active and inactive calls. Rule as the data show it: active = GI50 up to about 1.1 µM and inactive = higher.

Experiments:
Test in all cases: NCI tumour cell line growth inhibition, 48 h
A498 = tested on: A498
A549 = tested on: A549
CAKI-1 = tested on: CAKI-1
CCRF-CEM = tested on: CCRF-CEM
COLO 205 = tested on: COLO 205
DLD-1 = tested on: DLD-1
DMS-273 = tested on: DMS-273
EKVX = tested on: EKVX
HCC 2998 = tested on: HCC 2998
HCT-116 = tested on: HCT-116
HCT-15 = tested on: HCT-15
HL-60 = tested on: HL-60
HOP-18 = tested on: HOP-18
HOP-62 = tested on: HOP-62
HOP-92 = tested on: HOP-92
HT-29 = tested on: HT-29
IGROV-1 = tested on: IGROV-1
K562 = tested on: K562
KM-20L2 = tested on: KM-20L2
KM12 = tested on: KM12
LOX IMVI = tested on: LOX IMVI
M19-MEL = tested on: M19-MEL
MCF7 = tested on: MCF7
MOLT-4 = tested on: MOLT-4
Malme-3M = tested on: Malme-3M
NCI-H226 = tested on: NCI-H226
NCI-H23 = tested on: NCI-H23
NCI-H460 = tested on: NCI-H460
NCI-H522 = tested on: NCI-H522
NCI/ADR-RES = tested on: NCI/ADR-RES
OVCAR-3 = tested on: OVCAR-3
OVCAR-4 = tested on: OVCAR-4
OVCAR-5 = tested on: OVCAR-5
OVCAR-8 = tested on: OVCAR-8
RPMI-8226 = tested on: RPMI-8226
RXF 393 = tested on: RXF 393
SF-268 = tested on: SF-268
SF-295 = tested on: SF-295
SF-539 = tested on: SF-539
SK-MEL-28 = tested on: SK-MEL-28
SK-MEL-2 = tested on: SK-MEL-2
SK-MEL-5 = tested on: SK-MEL-5
SK-OV-3 = tested on: SK-OV-3
SN12C = tested on: SN12C
SNB-19 = tested on: SNB-19
SNB-75 = tested on: SNB-75
SNB-78 = tested on: SNB-78
SW-620 = tested on: SW-620
U-251 = tested on: U-251
UACC-257 = tested on: UACC-257
UACC-62 = tested on: UACC-62
UO-31 = tested on: UO-31
XF498 = tested on: XF498
786-0 = tested on: 786-0
ACHN = tested on: ACHN
BT-549 = tested on: BT-549
DMS-114 = tested on: DMS-114
DU-145 = tested on: DU-145
Hs-578T = tested on: Hs-578T
LXFL 529 = tested on: LXFL 529
M14 = tested on: M14
MDA-MB-231 = tested on: MDA-MB-231
MDA-MB-435 = tested on: MDA-MB-435
MDA-N = tested on: MDA-N
PC-3 = tested on: PC-3
SR = tested on: SR
TK-10 = tested on: TK-10

Measured: GI50

NC(=S)N/N=C/c1ccc(OC(=O)COc2ccccc2Cl)cn1
inactive: A498 > 72800 nM | A549 53600 nM | CAKI-1 44200 nM | CCRF-CEM 6100 nM | COLO 205 44600 nM | DLD-1 33000 nM | DMS-273 21000 nM | EKVX 56400 nM | HCC 2998 36600 nM | HCT-116 26500 nM | HL-60 18400 nM | HOP-18 39300 nM | HOP-62 20500 nM | HOP-92 12900 nM | HT-29 48000 nM | IGROV-1 > 93100 nM | K562 23100 nM | KM-20L2 40000 nM | KM12 75700 nM | LOX IMVI 27600 nM | M19-MEL 25900 nM | MCF7 10500 nM | MOLT-4 16300 nM | Malme-3M 24400 nM | NCI-H226 26500 nM | NCI-H23 12900 nM | NCI-H460 35200 nM | NCI-H522 18100 nM | NCI/ADR-RES 15400 nM | OVCAR-3 23200 nM | OVCAR-4 32400 nM | OVCAR-5 44400 nM | OVCAR-8 15700 nM | RPMI-8226 46300 nM | RXF 393 > 37500 nM | SF-268 17900 nM | SF-295 > 62700 nM | SF-539 14300 nM | SK-MEL-28 65000 nM | SK-MEL-2 42300 nM | SK-MEL-5 24800 nM | SK-OV-3 > 67000 nM | SN12C 30500 nM | SNB-19 47800 nM | SNB-75 > 54600 nM | SNB-78 > 80900 nM | SW-620 31000 nM | U-251 25100 nM | UACC-257 50100 nM | UACC-62 14600 nM | UO-31 36800 nM | XF498 40000 nM
39500 nM: HCT-15

COc1cc(/C=C\c2ccc(C)cc2)cc(OC)c1OC
active: 786-0 4.56 nM | A498 < 10 nM | A549 4.8 nM | ACHN 63.7 nM | BT-549 24.6 nM | CAKI-1 < 10 nM | CCRF-CEM 2.27 nM | COLO 205 10.1 nM | DLD-1 2.37 nM | DMS-114 0.266 nM | DMS-273 1.2 nM | DU-145 23.4 nM | EKVX 72.1 nM | HCC 2998 19.1 nM | HCT-116 1.06 nM | HL-60 0.57 nM | HOP-62 35.5 nM | HOP-92 65.2 nM | HT-29 7.83 nM | Hs-578T 24.4 nM | IGROV-1 46.6 nM | K562 1.31 nM | KM-20L2 0.117 nM | KM12 5.31 nM | LOX IMVI 4.33 nM | LXFL 529 0.4 nM | M14 7.23 nM | M19-MEL 1.97 nM | MCF7 41.5 nM | MDA-MB-231 25.9 nM | MDA-MB-435 2.64 nM | MDA-N 2.21 nM | MOLT-4 6.97 nM | Malme-3M 3.59 nM | NCI-H226 26.6 nM | NCI-H23 36.3 nM | NCI-H460 23.2 nM | NCI-H522 3.23 nM | NCI/ADR-RES 7.67 nM | OVCAR-3 1.15 nM | OVCAR-4 < 10 nM | OVCAR-5 116 nM | OVCAR-8 8.22 nM | PC-3 12.3 nM | RPMI-8226 3.71 nM | RXF 393 < 10 nM | SF-268 5.05 nM | SF-295 1.88 nM | SF-539 2.96 nM | SK-MEL-28 16.7 nM | SK-MEL-2 < 10 nM | SK-MEL-5 3.36 nM | SK-OV-3 1.7 nM | SN12C 10.5 nM | SNB-19 4 nM | SNB-75 2.81 nM | SNB-78 0.1 nM | SR 8.41 nM | SW-620 1.92 nM | TK-10 73.1 nM | U-251 4.41 nM | UACC-257 9.04 nM | UACC-62 8.85 nM | UO-31 120 nM | XF498 0.33 nM
7.46 nM: HCT-15
